Measurements as given in the supplement of paper PMC5908809.

Key:
[1] = test system: IMC-1 (IL-2 20 ng/mL); experiment: drug sensitivity score (DSS) (DSS units); higher = more sensitive; extreme values may be limits of the assay; conditions: 72 h
[2] = test system: KHYG-1 (IL-2 2.5 ng/mL); experiment: as above; conditions: 72 h
[3] = test system: normal primary NK cells, pool 3 (3 donors) (IL-2 2.5 ng/mL); experiment: as above; conditions: 72 h
[4] = test system: normal primary NK cells, pool 1 (3 donors), resting (IL-2 0 ng/mL); experiment: as above; conditions: 72 h
[5] = test system: NK-YS (IL-2 2.5 ng/mL); experiment: as above; conditions: 72 h
[6] = test system: DERL-7 (IL-2 2.5 ng/mL); experiment: as above; conditions: 72 h
[7] = test system: normal primary NK cells, pool 1 (3 donors) (IL-2 2.5 ng/mL); experiment: as above; conditions: 72 h
[8] = test system: normal primary NK cells, pool 2 (3 donors) (IL-2 2.5 ng/mL); experiment: as above; conditions: 72 h
[9] = test system: NKL (IL-2 2.5 ng/mL); experiment: as above; conditions: 72 h
[10] = test system: KAI3 (IL-2 2.5 ng/mL); experiment: as above; conditions: 72 h
[11] = test system: NK-92 (IL-2 2.5 ng/mL); experiment: as above; conditions: 72 h
[12] = test system: SNK-6 (IL-2 2.5 ng/mL); experiment: as above; conditions: 72 h
[13] = test system: YT (IL-2 2.5 ng/mL); experiment: as above; conditions: 72 h
[14] = test system: normal NK cells expanded with K562-aAPC; experiment: as above; conditions: 72 h; IL-2 2.5 ng/mL
Protocol: (§1)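 Drug sensitivity and resistance testing on K562-aAPC-expanded normal NK cells: 5 concentrations (10-fold steps over a 10,000-fold range), 72 h at 37 °C, viability by CellTiter-Glo normalised to DMSO and benzethonium chloride controls; DSS from the fitted curve.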

[15] = test system: normal NK cells expanded with K562-aAPC; experiment: percent inhibition of viability; higher = more inhibition; conditions: 72 h, IL-2 2.5 ng/mL
Protocol: as §1

[16] = test system: IMC-1 (IL-2 20 ng/mL); experiment: as above; conditions: 72 h
[17] = test system: KHYG-1 (IL-2 2.5 ng/mL); experiment: as above; conditions: 72 h
[18] = test system: normal primary NK cells, pool 3 (3 donors) (IL-2 2.5 ng/mL); experiment: as above; conditions: 72 h
[19] = test system: normal primary NK cells, pool 1 (3 donors), resting (IL-2 0 ng/mL); experiment: as above; conditions: 72 h
[20] = test system: NK-YS (IL-2 2.5 ng/mL); experiment: as above; conditions: 72 h
[21] = test system: DERL-7 (IL-2 2.5 ng/mL); experiment: as above; conditions: 72 h
[22] = test system: normal primary NK cells, pool 1 (3 donors) (IL-2 2.5 ng/mL); experiment: as above; conditions: 72 h
[23] = test system: normal primary NK cells, pool 2 (3 donors) (IL-2 2.5 ng/mL); experiment: as above; conditions: 72 h
[24] = test system: NKL (IL-2 2.5 ng/mL); experiment: as above; conditions: 72 h
[25] = test system: KAI3 (IL-2 2.5 ng/mL); experiment: as above; conditions: 72 h
[26] = test system: NK-92 (IL-2 2.5 ng/mL); experiment: as above; conditions: 72 h
[27] = test system: SNK-6 (IL-2 2.5 ng/mL); experiment: as above; conditions: 72 h
[28] = test system: YT (IL-2 2.5 ng/mL); experiment: as above; conditions: 72 h

Cc1ccc(C(=O)N(CCCN)[C@@H](c2oc3cc(Cl)ccc3c(=O)c2Cc2ccccc2)C(C)C)cc1 (max concentration tested 100 nM)
Conditions	drug sensitivity score
[1]	17.9
[2]	18.2
[3]	3.16
[4]	0
[5]	13.7
[6]	7.54
[7]	0
[8]	1.26
[9]	14.5
[10]	6.54
[11]	7.14
[12]	15
[13]	4.68
[14]	8.92

percent inhibition of viability [%]
Conditions	0.01 nM	0.1 nM	1 nM	10 nM	100 nM
[15]	0.7	-0.13	0.62	47.5	60.9
[16]	-7.61	-1.73	0.06	99.8	101
[17]	2.63	-2.09	3.33	98.1	108
[18]	-4.72	-7.26	16.7	13.5	15.5
[19]	-14	-28.1	6.55	-12.4	0.78
[20]	-1.37	-2.68	5	71.1	80.5
[21]	-6.36	-10.3	-3.04	12.1	100
[22]	-6.46	-14.6	7.89	0.13	9.64
[23]	-6.06	-2.94	7.66	13.1	9.78
[24]	7.05	-6.08	0.2	79.2	94.4
[25]	-6.39	-3.85	-7.56	25.9	57.9
[26]	-6.69	-0.53	4.14	12.2	92.1
[27]	-16.1	-20.8	5.75	78	91.8
[28]	-0.9	-3.95	-3.98	6.11	67.4

CNC(=O)c1ccc(C)c(-n2c(C)cc(OCc3ccc(F)cc3F)c(Br)c2=O)c1 (max concentration tested 1000 nM)
Conditions	drug sensitivity score
[1]	0.02
[2]	0.02
[3]	0
[4]	0
[5]	2.15
[6]	0
[7]	3.24
[8]	0
[9]	5.52
[10]	4.23
[11]	1.12
[12]	0
[13]	0.89
[14]	0

percent inhibition of viability [%]
Conditions	0.1 nM	1 nM	10 nM	100 nM	1000 nM
[15]	-9.29	-8.5	-9.81	-3.39	11.1
[16]	-9.65	-8.9	-7.96	-3.82	12.4
[17]	-4.44	-7.81	-8.38	-3.53	12.3
[18]	-6.51	-4.02	4.48	7.49	0.09
[19]	4.88	3.54	13.7	4.12	7.14
[20]	-6.34	-5.21	0.76	7.92	26.5
[21]	-0.31	-4.89	-4.27	2.58	1.48
[22]	0.91	0.08	13.3	13.8	17.8
[23]	-5.3	-4.39	0.85	-1.04	-5.85
[24]	-10.5	-7	9.32	26.1	43.8
[25]	-0.38	1.93	8.49	20.8	36
[26]	-1.67	-6.84	-3.84	-1.12	28.7
[27]	-18.8	-0.3	-20.7	-13.9	-14.7
[28]	-3.68	-3.72	-2.87	1.27	21.9

C[C@@H](Oc1ccc2[nH]nc(/C=C/c3cnn(CCO)c3)c2c1)c1c(Cl)cncc1Cl (max concentration tested 1000 nM)
Conditions	drug sensitivity score
[1]	8.86
[2]	21.6
[3]	12.7
[4]	0.82
[5]	12.9
[6]	11.6
[7]	11.4
[8]	15.3
[9]	19.4
[10]	17.6
[11]	12.9
[12]	20.8
[13]	6.34
[14]	20.3

percent inhibition of viability [%]
Conditions	0.1 nM	1 nM	10 nM	100 nM	1000 nM
[15]	-0.71	-1.93	22.3	94.3	97.8
[16]	2.17	-5.43	-8.61	21.8	98.1
[17]	-1.37	-1.77	23.3	101	98.7
[18]	-11.8	-16.6	7.47	63.4	69.5
[19]	-1.49	-11.6	-11.3	13.6	13.4
[20]	-6.71	-5.42	10.9	60.3	93
[21]	-4.25	-1.44	12.1	50	100
[22]	-3.85	-11	2.43	60.1	72.1
[23]	-12.2	-5.79	27.6	62.9	71.7
[24]	-5.85	0.25	37.2	79.9	84.6
[25]	2.24	4.1	25	79.6	90.2
[26]	-7.71	-11	4.63	65.8	84.5
[27]	-12	0.34	23.3	95	92.3
[28]	-2.34	-5.3	-2.2	9.63	85.6

O=C(NOC[C@H](O)CO)c1ccc(F)c(F)c1Nc1ccc(I)cc1F (max concentration tested 1000 nM)
Conditions	drug sensitivity score
[1]	0
[2]	9.09
[3]	0
[4]	0
[5]	0
[6]	23.1
[7]	1.95
[8]	0
[9]	11.1
[10]	3.26
[11]	0
[12]	0
[13]	0
[14]	0

percent inhibition of viability [%]
Conditions	0.1 nM	1 nM	10 nM	100 nM	1000 nM
[15]	-1.9	-4.6	-6.15	-9.26	-3.18
[16]	-4.97	0.45	-4.28	-5.8	-9.8
[17]	-3.39	0.89	14.1	40.9	55
[18]	-7.16	-7.47	-4.48	-8.83	-4.17
[19]	2.14	0.69	1.05	6.05	7
[20]	-5.52	-3.02	-1.28	2.92	8.84
[21]	102	5.21	16.2	22.4	38.7
[22]	-2.22	-8.03	2.53	15.6	18
[23]	-3.98	-4.69	-0.06	-5.3	5.01
[24]	-14.2	-2.12	27.4	41.5	59.1
[25]	-0.87	5.85	13.8	15.7	22.6
[26]	-5.72	-7.22	-10.3	-30.8	-12.8
[27]	4.76	22	-8.5	-17.1	-28.3
[28]	-2.67	-1.04	-2.4	1.31	4.12

OCCn1cc(-c2cnc3nnn(Cc4ccc5ncccc5c4)c3n2)cn1 (max concentration tested 2500 nM)
Conditions	drug sensitivity score
[1]	0
[2]	0
[3]	0
[4]	0.02
[5]	0.5
[6]	0
[7]	0.34
[8]	0
[9]	3.7
[10]	0.81
[11]	3.17
[12]	0
[13]	0.06
[14]	0.06

percent inhibition of viability [%]
Conditions	0.25 nM	2.5 nM	25 nM	250 nM	2500 nM
[15]	-1.81	-5.59	-1.09	4.36	10.7
[16]	-3.49	3.05	-2.66	5.69	6.58
[17]	-6.94	-4.08	-4.27	1.49	7.29
[18]	-4.09	3.45	7.9	-5.94	7.18
[19]	-7.9	6.66	4.48	7.02	11.4
[20]	-3.62	-4.61	-4.57	1.28	16.9
[21]	-0.9	-0.84	0.34	-3	-8.26
[22]	-4.03	5.55	18.1	6.24	10.1
[23]	-2.43	3.77	5.1	-2.16	4.71
[24]	-0.17	5.36	16.3	12	17.6
[25]	-0.76	-5.72	5.28	8.13	18.2
[26]	-3.39	13.7	-1.59	11.9	33.2
[27]	-14.8	-17.6	-15.8	-7.55	1.66
[28]	-6.67	-5.28	-6.34	-0.92	12.8
